Results taken from patent publication US11192893B2, “Pyrazoloquinazolinone antitumor agents” (The Rockefeller University, priority 2017, dated 2021).
Like-named read-outs stand apart in the source and are kept apart here.

Experiments:
[1] = molecular target: human cytoplasmic dynein 2 (Homo sapiens (Human), UniProt Q8NCM8); test: microtubule gliding assay with GFP-dynein 2; format: biochemical; details: for Gliding velocity: dynein 2-driven microtubule gliding, test compounds at 20 pM (so in the source), 0.05 mg/mL casein, 2% DMSO, solvent control 126 ± 17; for Gliding velocity / IC50: 1 mM MgATP; for IC50: Table 1, dose-dependent analysis of dynein 2-driven microtubule gliding
Protocol: Compounds were tested employing a microtubule gliding assay, a standard biochemical assay for motor proteins. […] We purified an N-terminally GFP-tagged motor-domain construct of dynein 2 using an insect cell expression system [Schmidt et al., Nature. 2015; 518(7539):435-8]. The GFP tag in this construct allowed immobilization on passivated glass coverslips used in microtubule gliding assays. GFP-dynein 2, in the presence of ATP (1 mM), moved microtubules with a velocity of 128±14 nm/s. The mean velocity of dynein 2-driven microtubule gliding in the presence of control solvent (2% DMSO) and test compounds at 20 pM were compared. All motility assays were run at 1 mM MgATP, 0.05 mg/mL casein, and 2% DMSO. Representative examples of compounds of the invention provided the results shown as “Gliding velocity in nm/s” in Table 1. For some compounds, dose-dependent analyses were performed, and the results are shown as “IC50 in μM” in Table 1.
Microtubule surface gliding assay. Cytoplasmic dynein was purified from bovine brains as described by Bingham et al. [Methods Enzymol. 298, 171 (1998)]. K560, a 560-amino acid N-terminal fragment of human conventional kinesin (kinesin-1) with a C-terminal His-tag, was expressed in bacteria and purifed as described by Woehlke et al., [Cell 90, 207 (1997)]. Motility assays were performed on a Zeiss Axiovert 200M wide-field microscope equipped with a Zeiss 100×/1.45 NA α-Plan-Fluar objective. Data were captured with an EM-CCD camera (iXon DU-897, Andor Technology) with a 0.3-second exposure time and frame rate of 0.5 second^−1. Microtubule gliding assays were performed as described by Kapoor and Mitchison [Proc. Natl. Acad. Sci. U.S.A 96, 9106 (1999)] with some modifications. An approximately 6-μL flow chamber was filled with motor protein (100 μg/mL dynein or 50 μg/mL K560) in motor dilution buffer (80 mM Pipes, 1 mM EGTA, 2 mM MgCl2, 2 mM DTT, 50 μM ATP, pH 6.8 with KOH). After a 2-minute incubation, excess protein was washed out with 20 μL of PEM80 buffer (80 mM Pipes, 1 mM EGTA, 2 mM MgCl2, pH 6.8 with KOH) and the surface was blocked against non-specific microtubule binding by filling the chamber with blocking protein (0.5 mg/mL α-casein for dynein experiments and 1 mg/mL BSA for K560 experiments) in motor dilution buffer. After 2 minutes the chamber was perfused with 18 μL of reaction mix (PEM80, 40 mM KC 1, blocking protein [1 mg/mL α-casein for dynein experiments; 1 mg/mL BSA for K560 experiments], 2 mM MgATP, 20 μM taxol, 0.1 μM rhodamine-labeled microtubules, oxygen depletion system [4 mM DTT, 2 mM glucose, 40 μg/mL glucose oxidase, 35 μg/mL catalase], 2.5% DMSO, and test compounds as appropriate). The flow chamber was then sealed with valap. After allowing the microtubules to bind to the surface for 5 minutes, the gliding microtubules were visualized by time-lapse fluorescence microscopy. Velocities were measured by kymography using Metamorph software (Molecular Devices), and the velocity for each microtubule was determined from the total distance during the time observed.
For washout experiments, the chamber was left unsealed after the initial reaction mix containing inhibitor was added. Microtubules were allowed to bind to the surface for 5 minutes, and then a time-lapse movie was acquired. The inhibitor was then washed out of the chamber by flowing in 20 μL of fresh reaction mix (PEM80, 40 mM KCl, 1 mg/mL α-casein, 2 mM MgATP, 20 μM taxol, oxygen depletion system, and 2.5% DMSO) without additional microtubules or inhibitor. The chamber was sealed, and additional time-lapse movies were acquired.

[2] = tested on: Hedgehog pathway activity; test: Shh-Light luciferase reporter assay of Hedgehog pathway activity (Shh-Light2 cells, SAG-stimulated); format: cell-based; details: for activity at 20 µM: 20 μM compound, read-out: SHH-light % residual @ 20 μM; for activity at 2 µM: 2 μM compound, read-out: SHH-light % residual @ 2 μM
Protocol: To examine the inhibition of dynein 2 in cell-based assays, an established luciferase reporter-based cellular assay of Hedgehog pathway activity was employed [Taipale et al., Nature. 2000; 406(6799): 1005-9]. Signaling in this pathway depends on the function of dynein 2. In this setting, expression of luciferase driven by Hedgehog pathway activity was inhibited by compound 5 with an IC50 value of 0.9±0.5 μM. […] The potencies of these compounds in this cell-based assay match the rank-order of dynein 2 inhibition in vitro. In these assays, Hedgehog pathway activity was stimulated using the Synthetic Agonist of Smoothened (SAG). This compound competes with many Hedgehog pathway inhibitors for binding to Smoothened, a key node in the signaling pathway.
SHH-Light Assay (Steinman et al. eLife 2017; 6:e25174.)
NIH-3T3 cells stably expressing a luciferase reporter downstream of a Gli binding site (Shh-Light2 cells, RRID: CVCL_2721) were maintained in DMEM with 10% bovine calf serum (BCS). Cells were seeded at a density of 30,000 cells/well in 96-well tissue culture-treated plates (Corning, cat #353072) in 100 μL in DMEM+10% BCS, and incubated for 48 hr (Taipale et al., 2000). Wells were washed briefly with PBS. Next […] of low serum media (DMEM+0.5% BCS) containing smoothened agonist (SAG, 500 nM), and either solvent control (0.2% DMSO) or test compound (serial three-fold dilutions of each inhibitor starting from 20 μM) were added to the wells. After 28-32 hr of inhibitor treatment, cells were washed with 50 μL PBS and lysed for >30 min in 30 μL Passive Lysis Buffer (Promega Dual Luciferase kit, cat E1910). 5 uL of each lysate was transferred to white, solid-bottom 96-well plates (Greiner, cat #655075), followed by rapid addition (within 30 s) of 30 μL of Luciferase Assay Reagent using a multichannel pipette. Luminescence for each condition was read using a Synergy Neo plate reader (5 s integration time per well). Cell line identity was confirmed by measurement of the degree of response to Hedgehog pathway stimulation by the synthetic agonist SAG and using previously published values from our groups and others as references (Firestone et al., 2012; Hyman et al., 2009).

[3] = tested on: dynein 1 construct with a mutation in the AAA3 domain (Walker A residue); test: ATPase activity of dynein 1 construct with AAA3 mutation; format: biochemical
Excerpt: ATPase activity at AAA1 is linked to individual steps of the motor, while the AAA3 site plays a regulatory role. Two lines of evidence indicate that compounds of the invention target the AAA1 site specifically. First, compound 5 inhibits the activity of a dynein 1 construct with a mutation in the AAA3 domain (Walker A residue). In this construct, the ATPase activity is expected to be mainly due to the AAA1 site. Second, the potency of inhibition of the AAA3 mutant is similar to that of the microtubule-stimulated ATPase rate. Sequence comparisons indicate that the AAA1 sites in dynein 1 and 2 are highly conserved, while the other AAA sites are less conserved. In fact, the residues within 4 Å of the bound nucleotide in AAA1 are identical between dynein 1 and 2.

human dynein 1 = human dynein 1 (Homo sapiens (Human), UniProt Q14204); test: microtubule gliding assay with GFP-dynein 1; format: biochemical; details: washout
Excerpt: To examine the inhibition of dynein 1 by compound 5 in vitro we generated recombinant human protein. We expressed and purified a GFP-tagged human dynein 1 (AA 1320-'16'16) construct similar to the one we used for GFP dynein 2. […] GFP-dynein 1 moves microtubules at 510±60 nm/s, a velocity expected based on studies of other mammalian dynein 1 homologs (n=7).
Microtubule surface gliding assay. Cytoplasmic dynein was purified from bovine brains as described by Bingham et al. [Methods Enzymol. 298, 171 (1998)]. K560, a 560-amino acid N-terminal fragment of human conventional kinesin (kinesin-1) with a C-terminal His-tag, was expressed in bacteria and purifed as described by Woehlke et al., [Cell 90, 207 (1997)]. Motility assays were performed on a Zeiss Axiovert 200M wide-field microscope equipped with a Zeiss 100×/1.45 NA α-Plan-Fluar objective. Data were captured with an EM-CCD camera (iXon DU-897, Andor Technology) with a 0.3-second exposure time and frame rate of 0.5 second^−1. […] After allowing the microtubules to bind to the surface for 5 minutes, the gliding microtubules were visualized by time-lapse fluorescence microscopy. Velocities were measured by kymography using Metamorph software (Molecular Devices), and the velocity for each microtubule was determined from the total distance during the time observed. […]

basal cell carcinoma = details: 33 human patients; cited from earlier work
medulloblastoma = details: human patient; cited from earlier work
[4] = SAG 500 nM, read-out: IC50, luciferase expression driven by Hedgehog pathway activity
[5] = Table 2, SAG 500 nM, 28-32 hr treatment, read-out: Shh-light IC50

Chain of human cytoplasmic dynein 2 (Q8NCM8 1091-4307 limits assumed): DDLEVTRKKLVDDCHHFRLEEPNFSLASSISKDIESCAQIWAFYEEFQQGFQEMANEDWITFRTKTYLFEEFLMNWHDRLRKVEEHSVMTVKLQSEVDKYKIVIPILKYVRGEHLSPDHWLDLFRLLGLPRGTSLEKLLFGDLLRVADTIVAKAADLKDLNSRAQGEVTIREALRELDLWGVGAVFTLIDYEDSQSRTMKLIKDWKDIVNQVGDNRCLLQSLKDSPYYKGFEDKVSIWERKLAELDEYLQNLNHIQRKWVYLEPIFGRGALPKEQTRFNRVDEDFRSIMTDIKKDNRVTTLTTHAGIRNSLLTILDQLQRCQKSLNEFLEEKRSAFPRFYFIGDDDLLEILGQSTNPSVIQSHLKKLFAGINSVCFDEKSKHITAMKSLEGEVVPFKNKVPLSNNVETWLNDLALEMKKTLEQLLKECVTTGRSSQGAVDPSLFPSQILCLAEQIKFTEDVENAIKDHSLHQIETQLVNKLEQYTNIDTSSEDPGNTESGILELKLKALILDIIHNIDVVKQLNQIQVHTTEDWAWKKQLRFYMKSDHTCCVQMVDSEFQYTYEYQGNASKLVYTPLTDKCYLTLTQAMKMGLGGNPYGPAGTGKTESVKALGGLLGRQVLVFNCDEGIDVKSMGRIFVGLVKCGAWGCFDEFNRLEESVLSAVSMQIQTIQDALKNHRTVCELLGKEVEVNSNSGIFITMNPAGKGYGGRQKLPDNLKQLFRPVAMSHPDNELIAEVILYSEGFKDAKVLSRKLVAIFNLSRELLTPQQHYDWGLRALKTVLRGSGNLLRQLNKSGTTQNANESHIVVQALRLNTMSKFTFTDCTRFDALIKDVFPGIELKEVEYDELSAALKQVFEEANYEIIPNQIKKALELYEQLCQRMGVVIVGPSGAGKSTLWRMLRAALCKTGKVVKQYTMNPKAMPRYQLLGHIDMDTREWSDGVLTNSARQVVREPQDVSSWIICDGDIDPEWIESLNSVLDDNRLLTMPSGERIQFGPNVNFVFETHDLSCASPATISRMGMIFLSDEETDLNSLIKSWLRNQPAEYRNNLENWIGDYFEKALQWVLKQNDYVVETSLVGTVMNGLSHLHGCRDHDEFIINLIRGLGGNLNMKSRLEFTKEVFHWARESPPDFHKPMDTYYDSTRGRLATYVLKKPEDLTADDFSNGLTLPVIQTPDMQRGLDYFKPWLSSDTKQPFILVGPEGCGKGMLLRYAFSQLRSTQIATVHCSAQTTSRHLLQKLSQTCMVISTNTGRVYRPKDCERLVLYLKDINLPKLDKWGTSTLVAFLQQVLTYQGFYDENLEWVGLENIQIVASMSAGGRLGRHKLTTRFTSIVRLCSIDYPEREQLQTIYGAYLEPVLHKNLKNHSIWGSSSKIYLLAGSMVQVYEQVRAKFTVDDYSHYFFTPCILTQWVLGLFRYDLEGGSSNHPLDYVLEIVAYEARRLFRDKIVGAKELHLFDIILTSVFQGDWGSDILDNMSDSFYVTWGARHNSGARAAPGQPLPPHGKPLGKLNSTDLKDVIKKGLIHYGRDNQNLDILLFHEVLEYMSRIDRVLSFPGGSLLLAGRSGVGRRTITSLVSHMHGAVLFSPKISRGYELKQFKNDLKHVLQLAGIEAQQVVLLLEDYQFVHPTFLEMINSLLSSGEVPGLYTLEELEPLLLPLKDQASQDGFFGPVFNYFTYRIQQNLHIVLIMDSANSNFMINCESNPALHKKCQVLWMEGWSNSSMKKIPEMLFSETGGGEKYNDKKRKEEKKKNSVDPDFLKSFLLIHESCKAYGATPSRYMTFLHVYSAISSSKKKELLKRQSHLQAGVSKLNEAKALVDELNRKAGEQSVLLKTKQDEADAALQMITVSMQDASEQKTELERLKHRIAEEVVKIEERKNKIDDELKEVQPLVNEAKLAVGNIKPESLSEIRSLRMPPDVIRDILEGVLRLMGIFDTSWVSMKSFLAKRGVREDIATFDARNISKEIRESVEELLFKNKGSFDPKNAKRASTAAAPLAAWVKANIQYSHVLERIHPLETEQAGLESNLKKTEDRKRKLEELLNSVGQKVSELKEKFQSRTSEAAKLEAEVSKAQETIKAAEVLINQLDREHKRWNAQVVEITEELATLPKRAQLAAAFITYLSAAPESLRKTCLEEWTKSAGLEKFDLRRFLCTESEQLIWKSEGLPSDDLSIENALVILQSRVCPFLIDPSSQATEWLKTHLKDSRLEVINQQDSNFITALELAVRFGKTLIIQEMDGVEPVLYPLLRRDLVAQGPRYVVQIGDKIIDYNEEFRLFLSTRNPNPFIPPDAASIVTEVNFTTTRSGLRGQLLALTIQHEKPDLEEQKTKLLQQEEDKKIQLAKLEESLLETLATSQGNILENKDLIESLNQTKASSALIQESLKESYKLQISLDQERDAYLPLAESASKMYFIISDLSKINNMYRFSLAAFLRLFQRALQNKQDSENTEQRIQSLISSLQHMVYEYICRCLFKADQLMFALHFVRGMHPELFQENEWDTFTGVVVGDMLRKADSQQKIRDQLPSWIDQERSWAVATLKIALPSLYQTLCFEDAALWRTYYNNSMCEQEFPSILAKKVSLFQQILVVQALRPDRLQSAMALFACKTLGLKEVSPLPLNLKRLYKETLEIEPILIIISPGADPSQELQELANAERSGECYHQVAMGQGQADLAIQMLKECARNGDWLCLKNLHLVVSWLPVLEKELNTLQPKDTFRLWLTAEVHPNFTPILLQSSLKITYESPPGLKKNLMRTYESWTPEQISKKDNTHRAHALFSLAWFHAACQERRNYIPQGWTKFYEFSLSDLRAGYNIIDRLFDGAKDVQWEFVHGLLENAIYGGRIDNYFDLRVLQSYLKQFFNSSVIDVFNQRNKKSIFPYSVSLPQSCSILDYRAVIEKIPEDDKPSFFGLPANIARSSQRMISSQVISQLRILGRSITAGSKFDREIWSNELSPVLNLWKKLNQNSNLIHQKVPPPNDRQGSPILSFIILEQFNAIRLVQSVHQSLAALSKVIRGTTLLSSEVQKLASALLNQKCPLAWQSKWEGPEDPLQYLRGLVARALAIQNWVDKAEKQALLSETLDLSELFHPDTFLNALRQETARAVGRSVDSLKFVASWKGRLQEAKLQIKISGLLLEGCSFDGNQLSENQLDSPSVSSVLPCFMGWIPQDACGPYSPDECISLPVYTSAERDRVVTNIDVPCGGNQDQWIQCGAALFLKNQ

Structure (SMILES) | Gliding velocity [1] | IC50 [1] | IC50 [2, 5] | activity at 20 µM ([2]; SAG 500 nM) | activity at 2 µM ([2]; SAG 500 nM) | further results
O=c1[nH]c2cc(-c3ccc(Cl)cc3Cl)nn2c2ccccc12 [Example 1, 2-(2,4-dichlorophenyl)-4H-pyrazolo[1,5-a]quinazolin-5-one] | 83 ± 10 nm/s |  |  |  |  | 
N#Cc1c(-c2ccc(Cl)cc2Cl)nn2c1[nH]c(=O)c1ccccc12 [Example 2, 2-(2,4-dichlorophenyl)-5-oxo-4H-pyrazolo[1,5-a]quinazoline-3-carbonitrile] | 83 ± 10 nm/s |  |  | 19.1% |  | IC50 [2, 4]: 5200 ± 5000 nM
N#Cc1c(C2(c3ccc(Cl)cc3)CC2)nn2c1[nH]c(=O)c1cc(C(F)(F)F)ccc12 [Example 4, 2-(1-(4-chlorophenyl)cyclopropyl)-5-oxo-7-(trifluoromethyl)-4,5-dihydropyrazolo[1,5-a]quinazoline-3-carbonitrile] | 6 ± 2 nm/s | 3300 ± 200 nM |  | -4.4% | 41.8% | 
N#Cc1c(C2(c3ccc(Cl)cc3)CC2)nn2c1[nH]c(=O)c1cc(I)ccc12 [Example 5, 2-[1-(4-chlorophenyl)cyclopropyl]-7-iodo-5-oxo-4H-pyrazolo[1,5-a]quinazoline-3-carbonitrile] | 6 ± 2 nm/s | 2600 ± 1300 nM | 1450 nM | -5.2% | 24.8% | inhibition of ATPase activity of AAA3 mutant dynein 1 [3]: inhibits; IC50 [2, 4]: 900 ± 500 nM; reversibility of inhibition of dynein 2-dependent motility ([1]; washout): reversed following washout; reversibility of inhibition of dynein 1-dependent microtubule gliding (human dynein 1): reversed following washout
O=c1c2ccccc2[nH]c2cc(-c3ccc(C(F)(F)F)cc3)nn12 [Example 71, 2-[4-(Trifluoromethyl)phenyl]-4H-pyrazolo[5,1-b]quinazolin-9-one] |  |  |  | 115% | 108% | 
CN(C)Cc1c(-c2ccc(Cl)cc2Cl)nn2c(=O)c3ccccc3[nH]c12 [Example 72, 2-(2,4-Dichlorophenyl)-3-[(dimethylamino)methyl]-4H-pyrazolo[5,1-b]quinazolin-9-one] |  |  |  | 20.1% | 122% | 
O=c1c2ccccc2[nH]c2c(I)c(-c3ccc(Cl)cc3Cl)nn12 [Example 73, 2-(2,4-Dichlorophenyl)-3-iodo-4H-pyrazolo[5,1-b]quinazolin-9-one] |  |  |  | 34.6% | 99.1% | 
CS(=O)(=O)c1ccc(C(=O)Nc2ccc(Cl)c(-c3ccccn3)c2)c(Cl)c1 [GDC-0449] |  |  |  |  |  | clinical response, basal cell carcinoma (basal cell carcinoma): clinically significant response; clinical response, medulloblastoma (medulloblastoma): regression of medulloblastoma

More lines, main results first:

Gliding velocity [1] | IC50 [1] | IC50 [2, 5] | Structure (SMILES) | activity at 20 µM ([2]; SAG 500 nM) | activity at 2 µM ([2]; SAG 500 nM) | further results
58 ± 14 nm/s |  |  | N#Cc1c(C2(c3ccc(Cl)cc3)CC2)nn2c1[nH]c(=O)c1ccccc12 [Example 3, 2-[1-(4-chlorophenyl)cyclopropyl]-5-oxo-4H-pyrazolo[1,5-a]quinazoline-3-carbonitrile] |  |  | 
 | 290 nM | 290 nM | N#Cc1c(C2(c3ccc(Cl)cc3)CC2)nn2c(=O)c3cc(Br)ccc3[nH]c12 [Example 12, 7-Bromo-2-[1-(4-chlorophenyl)cyclopropyl]-9-oxo-4H-pyrazolo[5,1-b]quinazoline-3-carbonitrile] | -1.9% | -3.1% | 
 | 620 nM | 600 nM | N#Cc1c(C2CCC(c3ccc(Cl)cc3)CC2)nn2c(=O)c3ccccc3[nH]c12 (stereo not drawn) [Example 27, 2-[4-(4-Chlorophenyl)cyclohexyl]-9-oxo-4H-pyrazolo[5,1-b]quinazoline-3-carbonitrile] | -1.5% | 27.3% | 
 | 730 nM | 680 nM | N#Cc1c(CCCOc2ccc(Cl)cc2)nn2c(=O)c3ccccc3[nH]c12 [Example 29, 2-[3-(4-Chlorophenoxy)propyl]-9-oxo-4H-pyrazolo[5,1-b]quinazoline-3-carbonitrile] | 3.8% | 33.5% | 
 | 710 nM | 660 nM | N#Cc1c(C2(c3ccc(Cl)cc3)CC2)nn2c(=O)c3ccccc3[nH]c12 [Example 31, 2-[1-(4-Chlorophenyl)cyclopropyl]-9-oxo-4H-pyrazolo[5,1-b]quinazoline-3-carbonitrile] | -1.6% | 30.4% | 
